Measured values taken from US20250206754A1, “PAN-CHEMOKINE ANTAGONISTS FOR USE IN TREATING CANCER AND IMMUNE DISORDERS” ("Micar Innovation" LTD., priority 2022, published 2025).
Where two headings read alike, the source gives them in different places.

System: 4T-1-luc cells
Format: in vivo
Settings: for bioluminescence intensity of lung: Day32 after inoculation, ex vivo; for total number of metastasis found by the ex-vivo studies: control group 10; for Metastasis on Liver, mice with metastasis / Metastasis on Liver, total number / Metastasis on Lung, mice with metastasis / Metastasis on Lung, total number / Metastasis on ribs, mice with metastasis / Metastasis on ribs, total number: ex-vivo
Experimental: Design of the in vivo study: A total of 44 female BALB/c mice (12 mice for maximal tolerance dose (MTD) study; 32 mice for efficacy study) were used in the 4T-1-Luc study. The animals were specific pathogen free and approximately 4-5 weeks old at the initiation of the study.
Murine breast carcinoma cells 4T-1-luc cells used in this study, were cultured in a 37° C. incubator containing 5% CO2 with 10% FBS and 2 μg/mL puromycin in RPMI1640 medium. The cells were sub-cultured within 10 passages before inoculated into the mice. 2*10^5 4T-1-luc cells suspended in 20 uL PBS were orthotopically injected into the 4th fat pat on the right side of each mouse. Before inoculation, mice were pre-anesthetized with 30 mg/kg Zoletil mixed with 10 mg/kg Xylazine and kept anesthetized with 3-4% isoflurane. Injected subcutaneously 20 mg/kg Tolfedine as painkillers once a day for 3 days. The day of cell inoculation was denoted as Day0. On Day3, 16 bearing-tumor mice were randomized into 4 groups (4 mice per group) according to body weight and BLI signal. The information of the preparation of Hit 1 dosing solution is as follow:
For 2-({6-phenylthieno[2,3-d]pyrimidin-4-yl}oxy)benzamide (Hit1, MIC5022) 5 mg/kg dose, the preparation was like that: weighed 2.5 mg of Hit 1, added in 0.50 ml of ethanol, vortex or magnetic stirring enough to mix well (all compound dissolved will be better), added in 2.00 ml of PEG400, vortex or magnetic stirring until getting a clear solution (no more than 60° C. water base ultrasonicate may be needed), added 2.50 ml of water to get clear solution. The concentration was 0.5 mg/ml, the storage condition was at 4C temperature and the preparation frequency was each 5 days.
For 2-({6-phenylthieno[2,3-d]pyrimidin-4-yl}oxy)benzamide (Hit1, MIC5022) 30 mg/kg dose, the preparation was like that: weighed 15 mg of Hit 1, added in 0.50 ml of ethanol, vortex or magnetic stirring enough to mix well (all compound dissolved will be better), added in 2.00 ml of PEG400, vortex or magnetic stirring until getting a clear solution (no more than 60° C. water base ultrasonicate may be needed), added 2.50 ml of water to get clear solution. The concentration was 3 mg/ml, the storage condition was at 4C temperature, and the preparation frequency was each 5 days.
The concentration was 15 mg/ml, the storage condition was at 4C temperature, and the preparation frequency was each 5 days.
Each mouse has been observed for changes in general appearance and behavior every day for 4 weeks after grouping. The abnormal phenomena were recorded.
Body weight: Mice were measured and recorded twice a week after grouping, and during the dose period. Animals were also weighed in the event of accidental death or near-death euthanasia. Tumor volume: The tumor volume (V) was calculated as follows: V=(length×width2)/2. Tumor volume was measured twice per week. Tumor growth inhibition (TGI), TGI=(1−(T/C)×100%; T and C as the mean tumor volumes of the treatment and control groups on the measurement day.
The individual relative tumor volume (RTV) was calculated as follows: RTV=Vt/V0, where Vt was the volume on each day, and V0 was the volume at the beginning of the treatment. IVIS imaging: We used IVIS® In Vivo Imaging Systems (PerkinElmer, Waltham, MA) which allow high sensitivity and high resolution in vivo BLI and fluorescence imaging (FLI) across a wide range of wavelengths. Animals were imaged up to five at a time under 3-4% isoflurane gas anesthesia. Each mouse has been injected with D-Luciferin and imaged 10-15 minutes after the injection. BLI signal was quantified in regions of interest (ROIs) drawn around tumors or tissues ex vivo and the signal is expressed as photons per second, representing the flux radiating omni-directionally from the user-defined region […] post grouping (Day3, Day10, Day14, Day17, Day21, Day24, Day28 and Day31).

[1] = G2 5 mg/kg, Day31 after inoculation
[2] = G3 30 mg/kg, Day31 after inoculation
[3] = G4 150 mg/kg, Day31 after inoculation

NC(=O)c1ccccc1Oc1ncnc2sc(-c3ccccc3)cc12 [Hit 1, 2-({6-phenylthieno[2,3-d]pyrimidin-4-yl}oxy)benzamide]
bioluminescence intensity of lung (5 mg/kg): 1.07E+06 | total number of metastasis found by the ex-vivo studies (5 mg/kg): 3 | bioluminescence intensity of lung (30 mg/kg): 1.66E+06 | total number of metastasis found by the ex-vivo studies (30 mg/kg): 2 | bioluminescence intensity of lung (150 mg/kg): 1.56E+06 | total number of metastasis found by the ex-vivo studies (150 mg/kg): 5 | reduction of the spread of the tumor (bioluminescence vs control) (5, 30, 150 mg/kg, Day31): 6-10 folds | metastasis in liver and ribs (5, 30, 150 mg/kg, ex-vivo images and manual counting): completely eliminated | reduction of metastasis development (lung bioluminescence vs control) (5, 30 and 150 mg/kg, Day32): about five | Animal bioluminescence imaging intensity, Mean (G2 5 mg/kg p.o. QD, Day 3): 2.07E+07 10^8 p/s | Animal bioluminescence imaging intensity, Mean (G2 5 mg/kg p.o. QD, Day 10): 1.56E+08 10^8 p/s | Animal bioluminescence imaging intensity, Mean (G2 5 mg/kg p.o. QD, Day 17): 3.39E+08 10^8 p/s | Animal bioluminescence imaging intensity, Mean (G2 5 mg/kg p.o. QD, Day 21): 4.78E+08 10^8 p/s | Animal bioluminescence imaging intensity, Mean (G2 5 mg/kg p.o. QD, Day 24): 3.52E+08 10^8 p/s | Animal bioluminescence imaging intensity, Mean (G2 5 mg/kg p.o. QD, Day 28): 4.34E+08 10^8 p/s | Animal bioluminescence imaging intensity, Mean (G2 5 mg/kg p.o. QD, Day 31): 5.01E+08 10^8 p/s | bioluminescence intensity (G2 5 mg/kg, Day3 after inoculation): 0.21*10^7±0.056*10^8 p/s | tumor volume (TV) (G2 5 mg/kg, Day10 after inoculation): 86.53±6.03 mm^3 | bioluminescence intensity [1]: 5.01*10^8±2.67*10^8 p/s | relative tumor volume (RTV) [1]: 5.99±0.61 | tumor volume (TV) [1]: 515.90±53.18 mm^3 | Metastasis on Liver, mice with metastasis (G2 (5 mg/kg)): (0/4 mice) | Metastasis on Liver, total number (G2 (5 mg/kg)): totally 0 | Metastasis on Lung, mice with metastasis (G2 (5 mg/kg)): 2/4 and (2/4 mice) | Metastasis on Lung, total number (G2 (5 mg/kg)): totally 3 | Metastasis on ribs, mice with metastasis (G2 (5 mg/kg)): (0/4 mice) | Metastasis on ribs, total number (G2 (5 mg/kg)): totally 0 | TV, RTV and TW compared with G1 (G2, G3 and G4 (5, 30, 150 mg/kg), p>0.05): no significant differences | tumor weight (TW) (G3 30 mg/kg): 0.95 ± 0.16 g | Animal bioluminescence imaging intensity, Mean (G3 30 mg/kg p.o. QD, Day 3): 2.31E+07 10^8 p/s | Animal bioluminescence imaging intensity, Mean (G3 30 mg/kg p.o. QD, Day 10): 2.71E+08 10^8 p/s | Animal bioluminescence imaging intensity, Mean (G3 30 mg/kg p.o. QD, Day 17): 1.32E+08 10^8 p/s | Animal bioluminescence imaging intensity, Mean (G3 30 mg/kg p.o. QD, Day 21): 1.30E+08 10^8 p/s | Animal bioluminescence imaging intensity, Mean (G3 30 mg/kg p.o. QD, Day 24): 2.08E+08 10^8 p/s | Animal bioluminescence imaging intensity, Mean (G3 30 mg/kg p.o. QD, Day 28): 4.49E+08 10^8 p/s | Animal bioluminescence imaging intensity, Mean (G3 30 mg/kg p.o. QD, Day 31): 3.26E+08 10^8 p/s | bioluminescence intensity (G3 30 mg/kg, Day3 after inoculation): 0.23*10^7±0.075*10^8 p/s | tumor volume (TV) (G3 30 mg/kg, Day10 after inoculation): 90.30±7.67 mm^3 | bioluminescence intensity [2]: 3.26*10^8±0.89*10^8 p/s | relative tumor volume (RTV) [2]: 5.33±0.64 | tumor volume (TV) [2]: 489.69±85.03 mm^3 | Metastasis on Liver, mice with metastasis (G3 (30 mg/kg)): (0/4 mice) | Metastasis on Liver, total number (G3 (30 mg/kg)): totally 0 | Metastasis on Lung, mice with metastasis (G3 (30 mg/kg)): 2/4 and (2/4 mice) | Metastasis on Lung, total number (G3 (30 mg/kg)): totally 2 | Metastasis on ribs, mice with metastasis (G3 (30 mg/kg)): (0/4 mice) | Metastasis on ribs, total number (G3 (30 mg/kg)): totally 0 | RTV course (G3 group 30 mg/kg, after day 24): clear decrease in the RTV | tumor weight (TW) (G4 150 mg/kg): 1.05 ± 0.19 g | bioluminescence intensity (G4 150 mg/kg, Day3 after inoculation): 0.21*10^7±0.054*10^8 p/s | tumor volume (TV) (G4 150 mg/kg, Day10 after inoculation): 85.22±10.26 mm^3 | bioluminescence intensity [3]: 5.08*10^8±2.16*10^8 p/s | relative tumor volume (RTV) [3]: 5.92±0.63 | tumor volume (TV) [3]: 515.66±98.37 mm^3 | Metastasis on Liver, mice with metastasis (G4 (150 mg/kg)): (0/4 mice) | Metastasis on Liver, total number (G4 (150 mg/kg)): totally 0 | Metastasis on Lung, total number (G4 (150 mg/kg)): totally 5 | Metastasis on ribs, mice with metastasis (G4 (150 mg/kg)): (0/4 mice) | Metastasis on ribs, total number (G4 (150 mg/kg)): totally 0 | Animal bioluminescence imaging intensity, Mean (Q4 150 mg/kg p.o. QD, Day 3): 2.07E+07 10^8 p/s | Animal bioluminescence imaging intensity, Mean (Q4 150 mg/kg p.o. QD, Day 10): 4.97E+07 10^8 p/s | Animal bioluminescence imaging intensity, Mean (Q4 150 mg/kg p.o. QD, Day 15): 1.33E+08 10^8 p/s | Animal bioluminescence imaging intensity, Mean (Q4 150 mg/kg p.o. QD, Day 17): 2.43E+08 10^8 p/s | Animal bioluminescence imaging intensity, Mean (Q4 150 mg/kg p.o. QD, Day 21): 2.94E+08 10^8 p/s | Animal bioluminescence imaging intensity, Mean (Q4 150 mg/kg p.o. QD, Day 24): 3.20E+08 10^8 p/s | Animal bioluminescence imaging intensity, Mean (Q4 150 mg/kg p.o. QD, Day 28): 5.27E+08 10^8 p/s | Animal bioluminescence imaging intensity, Mean (Q4 150 mg/kg p.o. QD, Day 31): 5.08E+08 10^8 p/s | death or abnormal behavior during the experiment (efficacy study, 5, 30, 150 mg/kg p.o. QD): no mice death or abnormal behavior of mice | safety conclusion (mouse, in vivo): relatively biologically safe
